Measured values from PubChem BioAssay (NCI).
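Interpolation was linear, between the two tested concentrations surrounding the appropriate level; five concentrations were tested over 48 hours in 96-well plates. At the GI50, growth is halved. TGI marks complete inhibition of growth.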

Assays:
Experiment in all cases: inhibition of tumour cell growth, NCI panel, 48 h
[1] = test system: SF-539 CNS
[2] = test system: A549 NSCLC
[3] = test system: HOP-92 NSCLC
[4] = test system: OVCAR-3 ovarian
[5] = test system: SNB-75 CNS
[6] = test system: 786-0 renal
[7] = test system: UACC-62 melanoma
[8] = test system: SF-268 CNS
[9] = test system: TK-10 renal
[10] = test system: PC-3 prostate

O=C1N[C@@H](O)[C@@H]2ON=C(c3ccccc3)[C@H]12
TGI [1]: > 100 µM
TGI [2]: > 100 µM
TGI [3]: > 100 µM
TGI [4]: > 100 µM
TGI [5]: > 100 µM
TGI [6]: > 100 µM
TGI [7]: > 100 µM
TGI [8]: > 100 µM
TGI [9]: > 100 µM

O=C1c2ccccc2-c2c1c1ccccc1c(=O)n2CCNCCCNCCn1c2c(c3ccccc3c1=O)C(=O)c1ccccc1-2
GI50 [1]: 0.0848 µM
TGI [1]: 1.36 µM
GI50 [2]: 0.0521 µM
TGI [2]: 0.662 µM
GI50 [4]: 0.362 µM
TGI [4]: 1.12 µM
GI50 [6]: 0.0539 µM
TGI [6]: 0.326 µM
GI50 [10]: 0.293 µM
TGI [10]: 1.24 µM
GI50 [7]: 0.362 µM
TGI [7]: 1.16 µM
GI50 [8]: 0.156 µM
TGI [8]: 6.81 µM

COC(=O)C(Cc1ccccc1)N/C=C\C(=O)c1ccc(Cl)cc1 (configuration not stated)
GI50 [1]: 18.6 µM
TGI [1]: 45.1 µM
GI50 [2]: 50.1 µM
TGI [2]: > 100 µM
GI50 [3]: 43.7 µM
TGI [3]: > 100 µM
GI50 [5]: > 100 µM
TGI [5]: > 100 µM
GI50 [6]: 23.6 µM
TGI [6]: 61.9 µM
GI50 [10]: 18.8 µM
TGI [10]: 45 µM
GI50 [7]: 19.7 µM
TGI [7]: 45.8 µM
GI50 [8]: 31.6 µM
TGI [8]: 67.4 µM

O=C(Nc1ccc(S(=O)(=O)N[C@@H](C(=O)O)c2ccccc2)cc1)c1ccc(F)cc1
TGI [1]: > 100 µM
TGI [2]: > 100 µM
TGI [3]: > 100 µM
TGI [4]: > 100 µM
TGI [5]: > 100 µM
TGI [6]: > 100 µM
TGI [7]: > 100 µM
TGI [8]: > 100 µM
TGI [9]: > 100 µM

COc1cc(/C=C/C(=N\NC(=O)c2ccccc2)c2sc(Nc3ccc(Cl)c(Cl)c3)nc2C)ccc1O
TGI [1]: > 100 µM
TGI [2]: > 100 µM
TGI [3]: 16.3 µM
TGI [4]: 76.6 µM
TGI [5]: > 100 µM
TGI [6]: > 100 µM
TGI [7]: 26.1 µM
TGI [8]: > 100 µM
TGI [9]: > 100 µM

CCOC(=O)Cc1nc(/C(C#N)=C/c2ccco2)[nH]c(=O)c1C#N
TGI [1]: > 100 µM
TGI [2]: > 100 µM
TGI [3]: > 100 µM
TGI [4]: > 100 µM
TGI [5]: > 100 µM
TGI [6]: > 100 µM
TGI [7]: > 100 µM
TGI [9]: > 100 µM

COc1ccc(C2C(N)=NCC2c2ccccn2)cc1 (configuration not stated)
TGI [1]: > 100 µM
TGI [2]: > 100 µM
TGI [3]: > 100 µM
TGI [4]: > 100 µM
TGI [5]: > 100 µM
TGI [6]: > 100 µM
TGI [7]: > 100 µM
TGI [8]: > 100 µM
TGI [9]: > 100 µM

O=C1CCn2c([nH]c3cccc4cccc2c43)=N1
TGI [1]: > 100 µM
TGI [2]: > 100 µM
TGI [5]: > 100 µM
TGI [6]: > 100 µM
TGI [7]: > 100 µM
TGI [8]: > 100 µM
TGI [9]: > 100 µM

COc1ccc(/C=C/C(=O)c2sc(-n3nc(-c4ccccc4)cc3-c3ccccc3)nc2C)cc1OC
TGI [1]: 81.1 µM
TGI [2]: > 100 µM
TGI [4]: 62.5 µM
TGI [6]: > 100 µM
TGI [7]: 52.2 µM
TGI [8]: 84.2 µM
TGI [9]: > 100 µM

CC1CCCC(C(=O)/C(=C/c2cccc(Cl)c2)C(=O)C(=O)O)C1 (configuration not stated)
TGI [1]: 64.9 µM
TGI [2]: > 100 µM
TGI [3]: > 100 µM
TGI [4]: 55.4 µM
TGI [5]: > 100 µM
TGI [6]: 33 µM
TGI [7]: > 100 µM
TGI [8]: 92.3 µM
TGI [9]: > 100 µM

NC1=NC(=O)C(CC(=O)Nc2ccc([N+](=O)[O-])cc2[N+](=O)[O-])S1 (configuration not stated)
TGI [2]: > 100 µM
TGI [3]: 89.4 µM
TGI [4]: > 100 µM
TGI [5]: > 100 µM
TGI [6]: > 100 µM
TGI [7]: > 100 µM
TGI [8]: > 100 µM
TGI [9]: > 100 µM

CC(O)CN1C(=O)NC(Cc2ccccc2)C1=O (configuration not stated)
TGI [1]: > 100 µM
TGI [2]: > 100 µM
TGI [3]: > 100 µM
TGI [5]: > 100 µM
TGI [6]: > 100 µM
TGI [8]: > 100 µM
TGI [9]: > 100 µM

Cc1ccc2/c(=C/c3ccc(N(C)C)cc3)c3cc(-c4ccccc4)[n+](C)n3c2c1
GI50 [1]: 0.0456 µM
TGI [1]: 2.21 µM
GI50 [2]: 0.0987 µM
TGI [2]: > 100 µM
GI50 [4]: 1.1 µM
TGI [4]: 47.5 µM
GI50 [5]: 0.144 µM
TGI [5]: 2.02 µM
GI50 [6]: 0.305 µM
TGI [6]: 2.92 µM
GI50 [10]: 0.0251 µM
TGI [10]: 3.9 µM
GI50 [7]: 0.0292 µM
TGI [7]: 0.252 µM
GI50 [9]: 0.266 µM
TGI [9]: 2.36 µM

CN1CCN(C)C1c1cccc(C2N(C)CCN2C)c1
TGI [1]: > 100 µM
TGI [3]: > 100 µM
TGI [4]: > 100 µM
TGI [5]: > 100 µM
TGI [6]: > 100 µM
TGI [7]: > 100 µM
TGI [8]: > 100 µM

CC1(C)CCc2cc3c(cc2O1)OCCC3=O
TGI [1]: > 100 µM
TGI [2]: > 100 µM
TGI [3]: > 100 µM
TGI [4]: > 100 µM
TGI [5]: > 100 µM
TGI [6]: > 100 µM
TGI [7]: > 100 µM
TGI [8]: > 100 µM
TGI [9]: > 100 µM

CC1(C)OC(=O)C=C([O-])O1.CC1(C)OC(=O)C=C([O-])O1.O=c1c(O)c(-c2ccc([O-])cc2[O-])oc2cc(O)cc(O)c12.[Ti+4]
TGI [1]: 60.2 µM
TGI [2]: > 100 µM
TGI [4]: > 100 µM
TGI [5]: 60.4 µM
TGI [6]: > 100 µM
GI50 [7]: 33.1 µM
TGI [7]: > 100 µM
TGI [8]: 95.5 µM
TGI [9]: > 100 µM

O=C1c2ccccc2-c2cccc3ccc(Cc4ccccc4)c1c23
TGI [1]: > 100 µM
TGI [2]: > 100 µM
TGI [3]: > 100 µM
TGI [4]: > 100 µM
TGI [5]: > 100 µM
TGI [6]: > 100 µM
TGI [7]: > 100 µM
TGI [8]: > 100 µM
TGI [9]: > 100 µM

CC/C=C\C/C=C\C1CC(=O)NCCCNCCCCN1 (configuration not stated)
TGI [1]: > 100 µM
TGI [2]: > 100 µM
TGI [3]: > 100 µM
TGI [5]: > 100 µM
TGI [6]: > 100 µM
TGI [8]: > 100 µM
TGI [9]: > 100 µM

CC(=O)OCCOCBr
TGI [1]: > 100 µM
TGI [2]: > 100 µM
TGI [3]: > 100 µM
TGI [4]: > 100 µM
TGI [5]: > 100 µM
TGI [6]: > 100 µM
TGI [7]: > 100 µM
TGI [8]: > 100 µM
TGI [9]: > 100 µM

CC1=Nc2c(ccc3c2C(=O)c2ccccc2C3=O)NC(c2ccncc2)C1 (configuration not stated)
GI50 [1]: > 100 µM
TGI [1]: > 100 µM
TGI [2]: > 100 µM
GI50 [3]: > 100 µM
TGI [3]: > 100 µM
GI50 [4]: > 100 µM
TGI [4]: > 100 µM
TGI [5]: > 100 µM
GI50 [6]: > 100 µM
TGI [6]: > 100 µM
TGI [7]: > 100 µM
TGI [9]: > 100 µM

O=c1c2ccccc2c2c3c1cccc3c1cccc3c(=O)c4ccccc4c2c31
TGI [1]: > 100 µM
TGI [2]: > 100 µM
TGI [3]: > 100 µM
TGI [4]: > 100 µM
TGI [5]: > 100 µM
TGI [6]: > 100 µM
TGI [7]: > 100 µM
TGI [8]: > 100 µM
TGI [9]: > 100 µM

CNC(=O)c1cn(C[C@H](F)CCc2ccc(NC(=O)Cc3cc(OC4CC(F)(F)C4)cc(C)n3)nn2)nn1
GI50 [1]: > 100 µM
TGI [1]: > 100 µM
GI50 [2]: 0.0594 µM
TGI [2]: > 100 µM
GI50 [3]: 23 µM
TGI [3]: > 100 µM
GI50 [5]: > 100 µM
TGI [5]: > 100 µM
GI50 [6]: > 100 µM
TGI [6]: > 100 µM
GI50 [10]: > 100 µM
TGI [10]: > 100 µM
GI50 [7]: > 100 µM
TGI [7]: > 100 µM
GI50 [8]: > 100 µM
TGI [8]: > 100 µM
GI50 [9]: > 100 µM
TGI [9]: > 100 µM
